Values of other authors as cited in PMC8155967, “Investigating the Potential of Transdermal Delivery of Avanafil Using Vitamin E-TPGS Based Mixed Micelles Loaded Films” (Pharmaceutics, 2021).
Converted amounts (≈) assume the structure as drawn.

COc1ccc(CN=c2[nH]c(N3CCC[C@H]3CO)ncc2C(=O)NCc2ncccn2)cc1Cl [AVA, Avanafil]
partition coefficient: 2.78 | solubility in water: 30 µg/mL (≈ 62 µM)
